According to paper PMC7112222, “Investigation of pyrimidine nucleoside analogues as chemical probes to assess compound effects on the proliferation of Trypanosoma cruzi intracellular parasites” (PLoS Neglected Tropical Diseases, 2020):
Where two headings read alike, the source gives them in different places.

Experiments:
[1] = system: T. cruzi intracellular amastigotes; assay: Detection of T. cruzi replication following exposure to inhibitors (EdU incorporation vs Hoechst); format: cell-based, Trypanosoma cruzi; conditions: Trypanosoma cruzi; for IC50: 48 hours exposure, mean ± SD
Protocol: The addition of host cells, parasites and compounds were as described for the T. cruzi image based method previously reported. […] Addition of nuclear and cytoplasmic dyes was undertaken as previously reported and images captured on an Opera confocal image-based system at 20x magnification. Image analysis was performed with a script developed in Columbus software (CHEMICAL LABEL INCORPORATION SCRIPT). Control wells were also imaged at an increased, 60x magnification to show the distribution of staining and the structure of the parasites within host cells. Eight background control wells consisted of infected host cells, fixed and exposed to Hoechst and the click chemistry cocktail, without the addition of the chemical probe EdU. […] All images taken were not modified and were taken on an Opera, confocal image-based reader.

[2] = system: T. cruzi intracellular amastigotes; assay: Image-based assay of the number of T. cruzi infected cells (intracellular amastigotes in 3T3 host cells); format: cell-based, Trypanosoma cruzi; conditions: for IC50 / Emax / inhibition at 183 µM: Trypanosoma cruzi; for inhibition at 183 µM: 48 h, read-out: inhibition of T. cruzi growth at highest test concentration
Protocol: (§1) Parasites and host cells were maintained as outlined previously. Briefly, host 3T3 fibroblasts (ATCC, CCL-92) were grown in RPMI medium (Thermo Fisher Scientific, USA) with no phenol red, supplemented with 10% FBS (Thermo Fisher Scientific, USA) and incubated at 37°C in 5% CO2. Host cells were harvested at 70% confluency and were split every 2–3 days in 175 cm^2 flasks. 3T3 cells were cultured up to passage 7 as contact inhibition was reduced or lost at higher passages. Prior to infection with T. cruzi trypomastigotes, host cells were seeded at 1.2 x 10^6 cells in 75 cm^2 or 4 x 10^5 cells in 25 cm^2 flasks and grown for 24 hours before parasite addition. Parasites were added at a multiplicity of infection (MOI) of 10:1 and incubated for 24 hours before non-infected trypomastigotes were washed off the host cell bed with PBS supplemented with Ca^2+ and Mg^2+ (Thermo Fisher Scientific, USA). Incubation was continued for a further 3 days, until tissue culture trypomastigotes began to egress from host cells. Egressed parasites were used for assays or to continue the infective life cycle in vitro.
The activity of the nucleoside analogues against T. cruzi intracellular amastigotes following 24, 48 hours exposure and compound wash off, was determined using image-based techniques as previously described. Briefly, 14-point serial dilutions of the compounds in 100% DMSO were prepared and then further diluted in sterile water at a ratio of 1:21 compound: water. Five microliters of the diluted compounds were added to wells of T. cruzi infected host cells, using a MiniTrak compound handling device (Perkin Elmer, USA) with final concentrations in the plate ranging from 183 μM to 4.6 x 10^−4 μM. All experiments were performed with two separate biological replicates.
IC50 values for inhibitory activity of both the nucleoside analogues tested as DNA probes and known inhibitors tested to determine their effect on replication of T. cruzi were calculated in GraphPad Prism 5, using sigmoidal dose response with variable slope. […] The p-value for difference in the % activity at Emax concentrations for compounds with known activity (EdU identified parasites, compared to Hoechst identified parasites) against T. cruzi was determined using GraphPad Prism 5, using an unpaired student’s t-test. […] The Emax for each compound was at least two data points in from the beginning of the plateau of activity in the IC50 curve, as previously described.

[3] = system: 3T3 cells; assay: Image-based assay, effect on 3T3 host cells; format: cell-based; conditions: 48 h; highest test concentration 183 μM
Protocol: as §1
[…] Briefly, 14-point serial dilutions of the compounds in 100% DMSO were prepared and then further diluted in sterile water at a ratio of 1:21 compound: water. Five microliters of the diluted compounds were added to wells of T. cruzi infected host cells, using a MiniTrak compound handling device (Perkin Elmer, USA) with final concentrations in the plate ranging from 183 μM to 4.6 x 10^−4 μM. All experiments were performed with two separate biological replicates.
Image analysis was performed with a script developed in Columbus software (CHEMICAL LABEL INCORPORATION SCRIPT). Control wells were also imaged at an increased, 60x magnification to show the distribution of staining and the structure of the parasites within host cells. Eight background control wells consisted of infected host cells, fixed and exposed to Hoechst and the click chemistry cocktail, without the addition of the chemical probe EdU. […] The percentage activity of compounds against parasite number / infected cells (identified with Hoechst) was calculated against a positive control of 12 μM of NFX for the parasite and 30 μM of PURO the host cells; and a negative control of 0.47% DMSO. All images taken were not modified and were taken on an Opera, confocal image-based reader.

[4] = system: HEK293 cells; assay: Redox-based assay to assess HEK293 viability; format: cell-based, human; conditions: 48 hours exposure; highest test concentration 87 μM; EdU value estimated, relative to Emax plateau of 57%
Protocol: To determine the effect of the nucleoside analogues against a replicating mammalian cell line, analogues were tested against HEK293 cells, utilising a REDOX-based metabolic assay to assess cell viability as previously described. […] Experiments were performed over two biological replicates.

[5] = system: T. cruzi amastigote DNA; assay: Incorporation of pyrimidine nucleoside analogues into T. cruzi amastigote DNA (click chemistry, colocalisation with Hoechst); format: cell-based, Trypanosoma cruzi; conditions: for incorporation (no incorporation observed): 48 hours, concentrations up to a maximum of 73 μM
Protocol: T. cruzi infected 3T3 fibroblasts were initially exposed to nucleoside analogues for 48 hours at concentrations ranging from 73 μM to 1.8 x10^-4 μM. Host cell, parasite and compound additions were carried out as previously described. Cells were then stained using a click chemistry azide cocktail, followed by Hoechst to identify nuclear material, as previously reported. The freshly prepared azide cocktail consisted of a final concentration of 5 μM of Alexa Fluor 488 azide (Thermo Fisher Scientific, USA), 1 mM copper sulfate (Sigma Aldrich, USA) and 100 mM sodium ascorbate (Sigma Aldrich, USA), in DPBS. Wells were imaged on an Opera image-based reader (Perkin Elmer, USA) at 20x magnification with 405 nm (defined as Hoechst channel) and 488 nm (defined as Alexa 488 channel) lasers using filter sets/bandwidth (emission) of 450/50 nm and 540/75 nm, respectively. To determine nucleoside analogue incorporation into T. cruzi amastigote DNA, a script was developed utilising the Columbus (PerkinElmer, USA) image-based analysis and data handling platform (CHEMICAL LABEL INCORPORATION SCRIPT). Nucleoside analogues were also tested for DNA incorporation following 2, 4 and 24 hours exposure, at the same concentrations. All experiments were performed in duplicate. The colocalisation of nucleoside analogues and Hoechst (replicating parasites) at each time point (48, 4 and 2 hours) was compared using GraphPad Prism 5.
A CHEMICAL LABEL INCORPORATION SCRIPT developed in Columbus firstly identified Hoechst stained parasites within host cells by spot analysis, utilizing the same building block analysis as we had previously developed to determine T. cruzi infected cells. The physical definition of amastigote DNA was identified by Hoechst, with the only modification being that as there was no cytoplasmic marker, thus segmentation borders in the Hoechst channel were applied, which effectively separated host cells (Fig 2). Further building blocks were added to calculate the intensity of Alexa Fluor 488 within the spots identified by Hoechst, in infected cells. This script was first applied to images to determine the mean fluorescence intensity in the Alexa 488 channel of Hoechst identified parasites, without the addition of the chemical label. The mean plus three times the standard deviation of this intensity was used to define values above background, thus the minimum intensity above background required to identify parasite DNA which successfully incorporated the chemical label. An input box was incorporated into the script, in which this minimum intensity above background was entered. Parameters of the developed script, “CHEMICAL LABEL INCORPORATION” are shown in S1 Table.
• Number of T. cruzi amastigote infected cells (≥5 parasites per cell, identified with Hoechst). • Number of Hoechst identified T. cruzi parasites (in infected cells). • Number of parasites incorporating chemical label (T. cruzi parasites with Alexa 488 intensity above background, in infected cells). • % chemical label incorporation. Alexa 488 spots in infected cells (above background) NO / Hoechst spots in infected cells NO *100 = Percentage colocalisation; where NO = number of objects. • Number of host cells.

[6] = 24 hours exposure, highest test concentration 183 μM
[7] = 48 hours incubation, compound wash off, further 72 hours without compound, highest test concentration 183 μM
[8] = 48 hours incubation, highest test concentration 183 μM

Compound	inhibition at 63 µM ([1]; 2 h, read-out: mean inhibition of incorporation of EdU into the parasite DNA)	IC50 ([1]; then 0.37 μM EdU for 4 hours, number of EdU incorporating parasites, read-out: IC50 value Amastigotes (EdU))	IC50 ([1]; number of Hoechst identified parasites in infected cells, read-out: IC50 value Amastigotes (Hoechst))	SI (selectivity index to T. cruzi intracellular amastigotes in relation to HEK293 cells) ([2]; 48 hours exposure)	IC50 ([2]; read-out: IC50 value of positive assay control in the 2 and 4 hour exposure experiment, control exposure for 48 hours)	IC50 ([2]; 24 hours exposure, highest test concentration 183 μM, read-out: T. cruzi 24 IC50 value)	Emax ([2]; 24 hours exposure, read-out: T. cruzi 24 relative Emax (in brackets) (converted))	IC50 ([2]; 48 hours exposure, well-established intracellular infection assay, mean ± SD, POSA value based on sub-optimal effect (Emax 75%), read-out: IC50 value Infected cells (Hoechst))	IC50 ([2]; 48 hours incubation, compound wash off, further 72 hours without compound, highest test concentration 183 μM, read-out: T. cruzi Wash off IC50 value)	Emax ([2]; 48 hours incubation, wash off, further 72 hours without compound, read-out: T. cruzi Wash off relative Emax (in brackets) (converted))	IC50 ([2]; 48 hours incubation, highest test concentration 183 μM, read-out: T. cruzi 48 IC50 value)	Emax ([2]; 48 hours incubation, read-out: T. cruzi 48 relative Emax (in brackets) (converted))	Host cell 3T3 IC50 value 48 h [3]	HEK293 IC50 value [4]	T. cruzi 24 IC50 value [2, 6]	T. cruzi Wash off IC50 value [2, 7]	T. cruzi 48 IC50 value [2, 8]	inhibition at 183 µM ([2]; 48 hours incubation)	incorporation into T. cruzi DNA following 48 hours incubation (in words) [5]	incorporation (no incorporation observed) [5]
CC1CS(=O)(=O)CCN1/N=C/c1ccc([N+](=O)[O-])o1 (stereo not drawn) [NFX, nifurtimox]	57 ± 9.1%	210 ± 1.8 nM	320 ± 24 nM	> 143	1000 ± 101 nM	1720 ± 860 nM	100%	800 ± 90 nM	1410 ± 1080 nM	100%	970 ± 26 nM	100%	NA (NA = ≤50% activity at the highest concentration tested and an IC50 value could not be determined)	NA (NA = ≤50% activity at the highest concentration tested and an IC50 value could not be determined)	–	–	–	–	–	–
C#Cc1cn([C@@H]2O[C@H](CO)[C@@H](O)[C@@H]2I)c(=O)[nH]c1=O [I-ara-EdU, (2′S)-2′-deoxy-5-ethynyl-2′-iodo-uridine]	–	–	–	–	–	–	–	–	–	–	–	–	NA (NA = ≤50% activity at the highest concentration tested and an IC50 value could not be determined)	NA (NA = ≤50% activity at the highest concentration tested and an IC50 value could not be determined)	NA (NA = ≤50% activity at the highest concentration tested and an IC50 value could not be determined)	NA (NA = ≤50% activity at the highest concentration tested and an IC50 value could not be determined)	NA (NA = ≤50% activity at the highest concentration tested and an IC50 value could not be determined)	≤ 50%	did not	< 20%
C#Cc1cn([C@@H]2O[C@H](CO)[C@@H](O)[C@@H]2Br)c(=O)[nH]c1=O [Br-ara-EdU, (2′S)-2′-bromo-2′-deoxy-5-ethynyl-uridine]	–	–	–	–	–	–	–	–	–	–	–	–	NA (NA = ≤50% activity at the highest concentration tested and an IC50 value could not be determined)	NA (NA = ≤50% activity at the highest concentration tested and an IC50 value could not be determined)	NA (NA = ≤50% activity at the highest concentration tested and an IC50 value could not be determined)	NA (NA = ≤50% activity at the highest concentration tested and an IC50 value could not be determined)	NA (NA = ≤50% activity at the highest concentration tested and an IC50 value could not be determined)	≤ 50%	did not	< 20%
